Results from patent US9228209B2, “Method for producing triptolide” (priority 2009, dated 2016).

Experiments:
[1] = tested on: transcription factor NFκB; assay: Test of NFκB inhibition (TNFα stimulation in HaCaT keratinocyte cells); type: cell-based, human
Source text: Transcription factor NFκB controls the expression of a large number of genes involved in inflammatory response regulation. Certain proinflammatory stimuli, such as tumor necrosis factor-α (TNFα), lead to NFκB activation, i.e., to its nuclear translocation. Consequently, NFκB will induce the transcription of proinflammatory genes coding for cytokines, chemokines, adhesion molecules, growth factors and inducible enzymes such as cyclooxygenase-2 (COX-2) and nitric oxide synthase (iNOS). NFκB plays a key role in the initiation and amplification of the inflammatory response. Certain chronic inflammatory diseases of the skin, such as atopic dermatitis or psoriasis, are characterized by deregulation of the expression of inflammation mediators expressed by keratinocytes. The anti-inflammatory activity of pure triptolide (TRP) in relation to that of plant cell culture extracts (IBO.18.134) with equivalent amounts of TRP is evaluated.
FIG. 6 represents the inhibition of various extracts on NFκB activation following TNFα stimulation in HaCaT keratinocyte cells. As a positive control, dexamethasone (2 μM), which inhibits NFκB activation by 36%, was used.

RAW264.7 cells = assay: NO2− production by RAW264.7 cells stimulated with LPS (Griess reagent); type: cell-based, murine; conditions: identical TRP concentrations; 1 μg/ml LPS, 24 hours
Procedure: To this end, the test selected was NO2^− production by RAW264.7 cells stimulated with lipopolysaccharides (LPS).
Briefly, RAW264.7 cells (murine macrophages) were seeded at 1.4·10^5 cells/cm^2. After 24 hours, the cells were incubated for 1 hour with various concentrations of the products to be tested and then stimulated for 24 hours with 1 μg/ml of LPS. NO2 concentration was estimated in the culture supernatants using the Griess reagent.
The results (FIG. 7) illustrate NO2^− production obtained under the various conditions specified above. The percent inhibition calculated in relation to the LPS control appears in each histogram. Lastly, IC50 was calculated from these values (in bold blue).

Row | SMILES | inhibition at 2 µM ([1]; Homo sapiens, HaCaT, read-out: inhibition of NFκB activation) [%] | inhibition of nitrite production induced by LPS (RAW264.7 cells) | inhibition of NFκB activation ([1]; from 8 nM to 83 nM, TNFα stimulation, HaCaT keratinocyte cells) | NFκB inhibition, PCC extract compared with pure triptolide ([1]; identical triptolide concentrations of 8 nM, 28 nM and 83 nM)
1 | C[C@@H]1C[C@H]2[C@@H]3CCC4=CC(=O)C=C[C@]4(C)[C@@]3(F)[C@@H](O)C[C@]2(C)[C@@]1(O)C(=O)CO [dexamethasone] | 36 |  |  | 
2 | CC(C)[C@]12O[C@H]1[C@@H]1O[C@]13[C@]1(O[C@H]1C[C@H]1C4=C(CC[C@@]13C)C(=O)OC4)[C@@H]2O [triptolide, Triptolide] |  | inhibit nitrite production | inhibits in a dose-dependent manner | equivalent
